Tests used:
Experiment in all cases: Proqinase Kinase profiling
Assay type in all cases: biochemical
Details in all cases: read-out: % inhibition at 100nM
RET_S891A = molecular target: T1, RET_S891A (Homo sapiens, UniProt P07949, S891A)
T1 construct: purchased DiscoverX

CDK8_cyclinC = molecular target: T2, CDK8_cyclinC (Homo sapiens, UniProt P49336)
T2 construct: purchased DiscoverX

RET_E762Q = molecular target: T3, RET_E762Q (Homo sapiens, UniProt P07949, E762Q)
T3 construct: purchased DiscoverX

MAP3K2 = molecular target: T4, MAP3K2 (Homo sapiens, UniProt Q9Y2U5)
T4 construct: purchased DiscoverX

HIPK4 = molecular target: T5, HIPK4 (Homo sapiens, UniProt Q8NE63)
T5 construct: purchased DiscoverX

PAK4 = molecular target: T6, PAK4 (Homo sapiens, UniProt O96013)
T6 construct: purchased DiscoverX

RPS6KA5 = molecular target: T7, RPS6KA5 (Homo sapiens, UniProt O75582)
T7 construct: purchased DiscoverX

ROS1 = molecular target: T8, ROS1 (Homo sapiens, UniProt P08922)
T8 construct: purchased DiscoverX

PAK7 = molecular target: T9, PAK7 (Homo sapiens, UniProt Q9P286)
T9 construct: purchased DiscoverX

CSNK1D = molecular target: T10, CSNK1D (Homo sapiens, UniProt P48730)
T10 construct: purchased DiscoverX

NEK11 = molecular target: T11, NEK11 (Homo sapiens, UniProt Q8NG66)
T11 construct: purchased DiscoverX

FLT3_D835Y = molecular target: T12, FLT3_D835Y (Homo sapiens, UniProt P36888, D835Y)
T12 construct: purchased DiscoverX

CSNK2A1 = molecular target: T13, CSNK2A1 (Homo sapiens, UniProt P68400)
T13 construct: purchased DiscoverX

TAOK2 = molecular target: T14, TAOK2 (Homo sapiens, UniProt Q9UL54)
T14 construct: purchased DiscoverX

CAMKK2 = molecular target: T15, CAMKK2 (Homo sapiens, UniProt Q96RR4)
T15 construct: purchased DiscoverX

GCK = molecular target: T16, GCK (Homo sapiens, UniProt Q12851)
T16 construct: purchased DiscoverX

DAPK1 = molecular target: T17, DAPK1 (Homo sapiens, UniProt P53355)
T17 construct: purchased DiscoverX

EGFR_T790M_L858R = molecular target: T18, EGFR_T790M_L858R (Homo sapiens, UniProt P00533, L858R/T790M)
T18 construct: purchased DiscoverX

TBK1 = molecular target: T19, TBK1 (Homo sapiens, UniProt Q9UHD2)
T19 construct: purchased DiscoverX

PLK1 = molecular target: T20, PLK1 (Homo sapiens, UniProt P53350)
T20 construct: purchased DiscoverX

PLK4 = molecular target: T21, PLK4 (Homo sapiens, UniProt O00444)
T21 construct: purchased DiscoverX

TAOK3 = molecular target: T22, TAOK3 (Homo sapiens, UniProt Q9H2K8)
T22 construct: purchased DiscoverX

RPS6KA2 = molecular target: T23, RPS6KA2 (Homo sapiens, UniProt Q15349)
T23 construct: purchased DiscoverX

IRAK4 = molecular target: T24, IRAK4 (Homo sapiens, UniProt Q9NWZ3)
T24 construct: purchased DiscoverX

CHEK2 = molecular target: T25, CHEK2 (Homo sapiens, UniProt O96017)
T25 construct: purchased DiscoverX

ABL1_F317I = molecular target: T26, ABL1_F317I (Homo sapiens, UniProt P00519, F317I)
T26 construct: purchased DiscoverX

ADRBK2 = molecular target: T27, ADRBK2 (Homo sapiens, UniProt P35626)
T27 construct: purchased DiscoverX

EGFR_L861Q = molecular target: T28, EGFR_L861Q (Homo sapiens, UniProt P00533, L861Q)
T28 construct: purchased DiscoverX

KIT_D816V = molecular target: T29, KIT_D816V (Homo sapiens, UniProt P10721, D816V)
T29 construct: purchased DiscoverX

BLK = molecular target: T30, BLK (Homo sapiens, UniProt P51451)
T30 construct: purchased DiscoverX

CSK = molecular target: T31, CSK (Homo sapiens, UniProt P41240)
T31 construct: purchased DiscoverX

SRC = molecular target: T32, SRC (Homo sapiens, UniProt P12931)
T32 construct: purchased DiscoverX

RET_V804M = molecular target: T33, RET_V804M (Homo sapiens, UniProt P07949, V804M)
T33 construct: purchased DiscoverX

PRKACA = molecular target: T34, PRKACA (Homo sapiens, UniProt P17612)
T34 construct: purchased DiscoverX

PDK1 = molecular target: T35, PDK1 (Homo sapiens, UniProt O15530)
T35 construct: purchased DiscoverX

MARK1 = molecular target: T36, MARK1 (Homo sapiens, UniProt Q9P0L2)
T36 construct: purchased DiscoverX

ERBB4 = molecular target: T37, ERBB4 (Homo sapiens, UniProt Q15303)
T37 construct: purchased DiscoverX

MKNK1 = molecular target: T38, MKNK1 (Homo sapiens, UniProt Q9BUB5)
T38 construct: purchased DiscoverX

EEF2K = molecular target: T39, EEF2K (Homo sapiens, UniProt O00418)
T39 construct: purchased DiscoverX

LYN = molecular target: T40, LYN (Homo sapiens, UniProt P07948)
T40 construct: purchased DiscoverX

MST4 = molecular target: T41, MST4 (Homo sapiens, UniProt Q9P289)
T41 construct: purchased DiscoverX

MET_M1250T = molecular target: T42, MET_M1250T (Homo sapiens, UniProt P08581, M1250T)
T42 construct: purchased DiscoverX

CAMK4 = molecular target: T43, CAMK4 (Homo sapiens, UniProt Q16566)
T43 construct: purchased DiscoverX

T5 sequence (Q8NE63 whole entry): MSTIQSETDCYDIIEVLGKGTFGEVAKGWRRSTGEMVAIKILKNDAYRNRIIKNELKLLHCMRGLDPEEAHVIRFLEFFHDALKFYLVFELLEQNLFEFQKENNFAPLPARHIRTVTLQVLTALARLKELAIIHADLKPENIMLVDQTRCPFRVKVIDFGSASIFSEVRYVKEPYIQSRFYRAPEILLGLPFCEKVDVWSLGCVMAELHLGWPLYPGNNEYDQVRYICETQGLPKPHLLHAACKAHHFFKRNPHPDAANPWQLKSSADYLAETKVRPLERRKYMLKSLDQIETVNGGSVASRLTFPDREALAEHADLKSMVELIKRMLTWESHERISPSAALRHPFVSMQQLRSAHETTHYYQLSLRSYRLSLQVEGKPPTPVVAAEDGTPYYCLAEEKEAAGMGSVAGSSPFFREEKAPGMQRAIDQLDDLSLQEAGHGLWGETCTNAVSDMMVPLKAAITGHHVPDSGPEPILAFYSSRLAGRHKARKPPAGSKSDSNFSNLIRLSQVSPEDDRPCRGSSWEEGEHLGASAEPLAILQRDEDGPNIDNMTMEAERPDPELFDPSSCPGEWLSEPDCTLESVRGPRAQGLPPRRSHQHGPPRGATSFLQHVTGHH
T42 sequence (P08581 25-1390 M1250T): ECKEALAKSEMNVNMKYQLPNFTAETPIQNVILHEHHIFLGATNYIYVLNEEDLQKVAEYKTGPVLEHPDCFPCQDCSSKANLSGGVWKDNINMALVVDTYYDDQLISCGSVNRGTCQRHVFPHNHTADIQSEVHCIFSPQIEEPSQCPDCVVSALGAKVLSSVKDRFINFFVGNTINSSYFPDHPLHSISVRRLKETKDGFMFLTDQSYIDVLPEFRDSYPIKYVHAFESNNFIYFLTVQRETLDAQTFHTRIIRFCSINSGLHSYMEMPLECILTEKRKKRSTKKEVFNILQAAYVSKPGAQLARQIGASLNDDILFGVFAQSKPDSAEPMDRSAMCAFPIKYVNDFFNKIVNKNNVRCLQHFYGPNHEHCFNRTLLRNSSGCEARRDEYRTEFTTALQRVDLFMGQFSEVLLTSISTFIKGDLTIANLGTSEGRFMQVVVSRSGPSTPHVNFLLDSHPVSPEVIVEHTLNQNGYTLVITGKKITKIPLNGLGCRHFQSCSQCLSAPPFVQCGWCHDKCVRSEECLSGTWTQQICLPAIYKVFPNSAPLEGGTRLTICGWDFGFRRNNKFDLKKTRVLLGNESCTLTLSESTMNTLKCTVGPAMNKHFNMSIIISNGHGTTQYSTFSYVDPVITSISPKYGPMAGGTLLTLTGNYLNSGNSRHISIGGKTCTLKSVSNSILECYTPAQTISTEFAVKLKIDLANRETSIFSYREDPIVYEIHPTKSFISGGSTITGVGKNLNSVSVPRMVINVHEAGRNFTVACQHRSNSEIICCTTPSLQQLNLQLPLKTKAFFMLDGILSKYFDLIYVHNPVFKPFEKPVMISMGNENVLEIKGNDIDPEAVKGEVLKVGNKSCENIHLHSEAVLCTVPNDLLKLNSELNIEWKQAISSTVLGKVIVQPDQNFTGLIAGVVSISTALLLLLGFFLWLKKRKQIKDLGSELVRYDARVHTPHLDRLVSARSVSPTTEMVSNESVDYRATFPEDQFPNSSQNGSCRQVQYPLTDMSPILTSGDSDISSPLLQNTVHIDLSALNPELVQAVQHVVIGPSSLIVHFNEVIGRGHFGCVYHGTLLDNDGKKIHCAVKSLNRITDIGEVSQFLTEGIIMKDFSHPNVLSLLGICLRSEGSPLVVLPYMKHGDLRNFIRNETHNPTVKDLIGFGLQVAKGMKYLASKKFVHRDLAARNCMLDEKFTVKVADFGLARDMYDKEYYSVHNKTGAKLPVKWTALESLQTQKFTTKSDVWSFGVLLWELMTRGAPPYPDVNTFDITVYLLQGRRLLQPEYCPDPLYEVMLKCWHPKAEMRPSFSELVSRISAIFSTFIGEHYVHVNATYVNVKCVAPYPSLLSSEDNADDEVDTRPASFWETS
T1 sequence (P07949 29-1114 S891A): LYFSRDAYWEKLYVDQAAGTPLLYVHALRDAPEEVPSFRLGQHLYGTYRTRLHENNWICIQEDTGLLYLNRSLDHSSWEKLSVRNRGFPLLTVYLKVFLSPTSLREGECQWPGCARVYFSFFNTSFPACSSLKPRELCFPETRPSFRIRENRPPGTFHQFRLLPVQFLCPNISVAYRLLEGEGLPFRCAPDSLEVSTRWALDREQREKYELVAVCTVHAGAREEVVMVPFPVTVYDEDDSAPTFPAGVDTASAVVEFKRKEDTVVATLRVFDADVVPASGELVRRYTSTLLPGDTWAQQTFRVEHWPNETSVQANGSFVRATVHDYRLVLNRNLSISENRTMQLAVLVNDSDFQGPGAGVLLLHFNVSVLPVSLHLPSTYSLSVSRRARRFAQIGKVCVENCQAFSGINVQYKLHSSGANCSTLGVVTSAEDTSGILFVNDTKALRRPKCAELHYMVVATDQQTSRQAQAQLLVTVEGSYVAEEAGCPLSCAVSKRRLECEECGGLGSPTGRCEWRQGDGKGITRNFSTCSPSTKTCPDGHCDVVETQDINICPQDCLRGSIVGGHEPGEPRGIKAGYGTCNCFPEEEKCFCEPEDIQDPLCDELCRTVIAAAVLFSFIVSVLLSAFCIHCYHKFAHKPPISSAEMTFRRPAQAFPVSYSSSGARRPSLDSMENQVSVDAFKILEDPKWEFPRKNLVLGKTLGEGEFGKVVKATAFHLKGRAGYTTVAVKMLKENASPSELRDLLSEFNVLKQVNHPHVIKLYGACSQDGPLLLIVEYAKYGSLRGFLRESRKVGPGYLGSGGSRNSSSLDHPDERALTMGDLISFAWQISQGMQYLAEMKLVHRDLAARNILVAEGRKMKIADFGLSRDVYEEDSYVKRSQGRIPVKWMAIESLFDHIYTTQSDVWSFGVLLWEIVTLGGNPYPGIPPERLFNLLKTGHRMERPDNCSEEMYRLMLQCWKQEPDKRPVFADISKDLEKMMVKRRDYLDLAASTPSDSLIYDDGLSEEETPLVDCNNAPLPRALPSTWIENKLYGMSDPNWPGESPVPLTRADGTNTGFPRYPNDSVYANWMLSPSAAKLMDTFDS
T27 sequence (P35626 whole entry): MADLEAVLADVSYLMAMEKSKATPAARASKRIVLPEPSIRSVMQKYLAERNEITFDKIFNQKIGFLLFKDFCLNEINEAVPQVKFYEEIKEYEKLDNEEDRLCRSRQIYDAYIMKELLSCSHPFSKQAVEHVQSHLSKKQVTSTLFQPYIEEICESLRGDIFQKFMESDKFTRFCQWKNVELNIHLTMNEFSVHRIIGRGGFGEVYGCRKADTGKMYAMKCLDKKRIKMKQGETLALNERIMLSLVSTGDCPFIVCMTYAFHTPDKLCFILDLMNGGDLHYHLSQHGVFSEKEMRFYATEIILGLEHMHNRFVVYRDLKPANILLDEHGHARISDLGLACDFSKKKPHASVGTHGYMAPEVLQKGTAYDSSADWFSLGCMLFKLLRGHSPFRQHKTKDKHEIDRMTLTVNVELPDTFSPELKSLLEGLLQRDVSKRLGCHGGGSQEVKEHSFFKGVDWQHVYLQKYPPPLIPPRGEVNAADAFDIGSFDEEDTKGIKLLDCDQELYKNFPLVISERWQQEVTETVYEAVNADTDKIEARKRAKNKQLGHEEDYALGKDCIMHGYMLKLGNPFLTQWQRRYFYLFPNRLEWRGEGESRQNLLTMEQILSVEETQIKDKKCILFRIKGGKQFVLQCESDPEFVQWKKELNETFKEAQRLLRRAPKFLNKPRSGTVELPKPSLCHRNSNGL
T4 sequence (Q9Y2U5 whole entry): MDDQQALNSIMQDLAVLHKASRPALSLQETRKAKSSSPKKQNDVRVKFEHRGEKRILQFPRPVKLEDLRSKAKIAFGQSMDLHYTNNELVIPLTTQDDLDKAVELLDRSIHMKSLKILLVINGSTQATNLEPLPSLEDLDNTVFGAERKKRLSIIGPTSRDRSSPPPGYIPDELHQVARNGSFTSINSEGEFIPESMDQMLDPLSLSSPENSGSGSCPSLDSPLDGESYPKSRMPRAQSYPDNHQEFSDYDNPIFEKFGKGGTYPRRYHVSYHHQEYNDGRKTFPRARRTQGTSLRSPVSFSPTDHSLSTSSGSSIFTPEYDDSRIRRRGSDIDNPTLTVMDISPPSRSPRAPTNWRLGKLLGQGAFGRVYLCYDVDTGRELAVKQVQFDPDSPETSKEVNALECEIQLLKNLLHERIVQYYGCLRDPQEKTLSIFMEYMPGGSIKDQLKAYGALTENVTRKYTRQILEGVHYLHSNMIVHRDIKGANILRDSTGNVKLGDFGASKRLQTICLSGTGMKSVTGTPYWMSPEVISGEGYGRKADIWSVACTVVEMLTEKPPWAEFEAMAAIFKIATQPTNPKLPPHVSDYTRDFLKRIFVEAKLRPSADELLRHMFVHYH
T6 sequence (O96013 whole entry): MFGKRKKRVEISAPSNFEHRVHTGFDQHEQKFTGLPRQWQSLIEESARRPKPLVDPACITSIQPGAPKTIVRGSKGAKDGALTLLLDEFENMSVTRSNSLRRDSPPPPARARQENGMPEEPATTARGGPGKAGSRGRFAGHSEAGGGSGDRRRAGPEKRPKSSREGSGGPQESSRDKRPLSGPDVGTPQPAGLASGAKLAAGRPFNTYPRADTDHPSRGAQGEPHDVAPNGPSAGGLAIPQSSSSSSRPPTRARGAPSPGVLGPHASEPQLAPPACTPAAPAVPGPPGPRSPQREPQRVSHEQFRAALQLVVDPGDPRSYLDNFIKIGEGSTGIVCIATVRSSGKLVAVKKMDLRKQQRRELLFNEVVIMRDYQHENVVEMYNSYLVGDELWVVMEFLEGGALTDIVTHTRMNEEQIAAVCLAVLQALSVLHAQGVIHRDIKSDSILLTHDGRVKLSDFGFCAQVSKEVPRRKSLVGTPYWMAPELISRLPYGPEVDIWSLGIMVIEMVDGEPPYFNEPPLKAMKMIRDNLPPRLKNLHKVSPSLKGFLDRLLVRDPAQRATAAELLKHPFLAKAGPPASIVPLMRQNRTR
T3 sequence (P07949 29-1114 E762Q): as the sequence (P07949 29-1114 S891A) above, with E734Q, A863S counted along it
T33 sequence (P07949 29-1114 V804M): as the sequence (P07949 29-1114 S891A) above, with V776M, A863S counted along it

Compound: Clc1cc2cc(c1)-c1cnn3ccc(nc13)NCCOCCO2 [OD36]
- inhibition at 0.1 µM (RET_S891A): 63%
- inhibition at 0.1 µM (CDK8_cyclinC): 57%
- inhibition at 0.1 µM (RET_E762Q): 33%
- inhibition at 0.1 µM (MAP3K2): 7%
- inhibition at 0.1 µM (HIPK4): 47%
- inhibition at 0.1 µM (PAK4): -3%
- inhibition at 0.1 µM (RPS6KA5): -3%
- inhibition at 0.1 µM (ROS1): 7%
- inhibition at 0.1 µM (PAK7): 8%
- inhibition at 0.1 µM (CSNK1D): 10%
- inhibition at 0.1 µM (NEK11): 4%
- inhibition at 0.1 µM (FLT3_D835Y): 62%
- inhibition at 0.1 µM (CSNK2A1): -7%
- inhibition at 0.1 µM (TAOK2): 15%
- inhibition at 0.1 µM (CAMKK2): 3%
- inhibition at 0.1 µM (GCK): 35%
- inhibition at 0.1 µM (DAPK1): 12%
- inhibition at 0.1 µM (EGFR_T790M_L858R): -13%
- inhibition at 0.1 µM (TBK1): 11%
- inhibition at 0.1 µM (PLK1): 7%
- inhibition at 0.1 µM (PLK4): -1%
- inhibition at 0.1 µM (TAOK3): 10%
- inhibition at 0.1 µM (RPS6KA2): 7%
- inhibition at 0.1 µM (IRAK4): 13%
- inhibition at 0.1 µM (CHEK2): 8%
- inhibition at 0.1 µM (ABL1_F317I): 8%
- inhibition at 0.1 µM (ADRBK2): 0%
- inhibition at 0.1 µM (EGFR_L861Q): 15%
- inhibition at 0.1 µM (KIT_D816V): 36%
- inhibition at 0.1 µM (BLK): 35%
- inhibition at 0.1 µM (CSK): -4%
- inhibition at 0.1 µM (SRC): 15%
- inhibition at 0.1 µM (RET_V804M): 5%
- inhibition at 0.1 µM (PRKACA): -3%
- inhibition at 0.1 µM (PDK1): 4%
- inhibition at 0.1 µM (MARK1): 11%
- inhibition at 0.1 µM (ERBB4): 12%
- inhibition at 0.1 µM (MKNK1): 23%
- inhibition at 0.1 µM (EEF2K): -9%
- inhibition at 0.1 µM (LYN): 43%
- inhibition at 0.1 µM (MST4): 3%
- inhibition at 0.1 µM (MET_M1250T): 12%
- inhibition at 0.1 µM (CAMK4): -4%

Compound: Cc1cc2cc(c1)-c1cnn3ccc(nc13)NCCNC(=O)CCN(C)C2 [OD52]
- inhibition at 0.1 µM (RET_S891A): 84%
- inhibition at 0.1 µM (CDK8_cyclinC): 44%
- inhibition at 0.1 µM (RET_E762Q): 19%
- inhibition at 0.1 µM (MAP3K2): 14%
- inhibition at 0.1 µM (HIPK4): 10%
- inhibition at 0.1 µM (PAK4): 7%
- inhibition at 0.1 µM (RPS6KA5): 7%
- inhibition at 0.1 µM (ROS1): 5%
- inhibition at 0.1 µM (PAK7): 5%
- inhibition at 0.1 µM (CSNK1D): 5%
- inhibition at 0.1 µM (NEK11): 4%
- inhibition at 0.1 µM (FLT3_D835Y): 4%
- inhibition at 0.1 µM (CSNK2A1): 3%
- inhibition at 0.1 µM (TAOK2): 3%
- inhibition at 0.1 µM (CAMKK2): 2%
- inhibition at 0.1 µM (GCK): 1%
- inhibition at 0.1 µM (DAPK1): 0%
- inhibition at 0.1 µM (EGFR_T790M_L858R): 0%
- inhibition at 0.1 µM (TBK1): -1%
- inhibition at 0.1 µM (PLK1): -1%
- inhibition at 0.1 µM (PLK4): -1%
- inhibition at 0.1 µM (TAOK3): -1%
- inhibition at 0.1 µM (RPS6KA2): -2%
- inhibition at 0.1 µM (IRAK4): -2%
- inhibition at 0.1 µM (CHEK2): -3%
- inhibition at 0.1 µM (ABL1_F317I): -3%
- inhibition at 0.1 µM (ADRBK2): -3%
- inhibition at 0.1 µM (EGFR_L861Q): -4%
- inhibition at 0.1 µM (KIT_D816V): -5%
- inhibition at 0.1 µM (BLK): -6%
- inhibition at 0.1 µM (CSK): -6%
- inhibition at 0.1 µM (SRC): -6%
- inhibition at 0.1 µM (RET_V804M): -6%
- inhibition at 0.1 µM (PRKACA): -7%
- inhibition at 0.1 µM (PDK1): -7%
- inhibition at 0.1 µM (MARK1): -9%
- inhibition at 0.1 µM (ERBB4): -10%
- inhibition at 0.1 µM (MKNK1): -11%
- inhibition at 0.1 µM (EEF2K): -13%
- inhibition at 0.1 µM (LYN): -14%
- inhibition at 0.1 µM (MST4): -17%
- inhibition at 0.1 µM (MET_M1250T): -19%
- inhibition at 0.1 µM (CAMK4): -23%

From paper PMC6874179, “Development of Macrocycle Kinase Inhibitors for ALK2 Using Fibrodysplasia Ossificans Progressiva‐Derived Endothelial Cells” (JBMR Plus, 2019)
